Measurements published in publication PMC5373622, “Screening for AMPA receptor auxiliary subunit specific modulators” (PLoS ONE, 2017).
“And” between values parts separate entries of the source, which are not always exact repeats. Identical values can stand only once. Like-named read-outs stand apart in the source and are kept apart here.

Experiments:
[1] = biological target: GluA2flip(Q)-GSG1L (A2Q-GSG cells) (Homo sapiens, UniProt P42262); test: Calcium flux (Fluo-8) compound CRC assay on A2Q-GSG cells
Source text: (§1) Cell lines used in the calcium flux assay were GluA2flip(Q)-FLAG + GSG1L-1D4 pTREt-Va dual expression in TetON HEK cell clone #20 (A2Q-GSG), GluA2flip(Q)-FLAG + CNIH3-1D4 pTREt-Va dual expression in TetON HEK cell clone #8 (A2Q-C3), GluA2flip(Q)-FLAG pTREt-Va in TetON HEK cell clone #5 (A2Q), and tethered GluA2flip(Q)-FLAG-stargazin [28] in pTREt-Va dual expression in TetON HEK cell clone #13 (A2Q-stg) (Summarized in Table 1).
(§2) Compounds that were selected as hits using the VSD assay were subsequently screened against the calcium permeable A2Q-stg and A2Q-C3 cell lines in a glutamate potency fold-shift assay using the calcium sensing dye Fluo-8 (AAT Bioquest cat #21080). This assay is used to measure how pretreatment with compounds shifts the EC50 of glutamate on A2Q-stg and A2Q-C3 cells. 30 μM of each compound was pre-incubated with the cells for 120 secs and then an 11-point glutamate CRC from 4 mM to 10 pM was applied to the cells for 180 sec. […] Greiner 384-pp round-bottom plates containing glutamate solutions were dispensed by hand using a multi-channel pipet at 5X final concentration. […] Sodium butyrate and DOX were added to the cells at 1 mM and 5 μg/mL, respectively, 24 hours before screening. A2Q-stg cells were induced with 10 μg/mL DOX. Cells were incubated O/N and washed 4 times in low calcium buffer on an ELX405CW liquid aspirator and dispenser (BioTek). Buffer was left in the wells and an equal amount of 4.6 μM (2X) Fluo-8 (AAT Bioquest cat #21080) solution with 2.5 mM probenecid was added and incubated on the cells at room temperature for 40 minutes. Probenecid was added to block dye efflux from the cells [29]. Dye was washed off with low calcium buffer using the ELX405CW (BioTek) and plates were immediately inserted into the FDSS (Hamamatsu). Fluorescence signal was collected at 1 Hz using Ex. 480±20 nm/Em. 540±40 nm. Baseline signal was collected for 10 seconds followed by addition of 20 μl of 2X compound for a final concentration of 30 μM. After 290 seconds, 10 μl of a 5X glutamate solution in high calcium buffer (10 mM HEPES, pH 7.4, 140 mM NaCl, 5 mM KCl, 1 mM MgCl2, 9 mM CaCl2, and 10 mM glucose) was added for 180 seconds.
(§3) These compound CRCs were applied to the cells 2 minutes before a 1mM glutamate stimulation. […] Normalized FDSS traces were curve fit to CRCs using the initial GLUslope (GLUslope1) in a 3–6 sec window after glutamate application. CRCs were also plotted for the traces’ area under the curve (AUC) in the GLUmaxmin window. […] Compounds were plotted as %max GLUslope against log [compound] and fit to a four-parameter logistical model as in the VSD.
(§4) Cells were loaded with Fluo-8 and excess dye was washed out. After 120 secs of pre-incubation with compound at concentrations ranging from 30 μM to 30 nM (Fig 4Bi), 1 mM glutamate was added (Fig 4Bii). In the calcium assay, 250 μM was used as the maxGLU dose because the GLUslope1 values decreased at higher concentrations of glutamate, making it the dose with the maximal GLUslope1 response. […] We measured GLUslope in three consecutive time windows, referred to as GLUslope1-3, because three phases were clearly detectable (Fig 4C). The final CRC curves were calculated from GLUslope1, obtained from the first 3–6 sec window.
(§5) The final compound CRC curves were calculated from GLUslope1. […] The AUC measures the accumulation of calcium instead of gating and sometimes produced a CRC fit when GLUslope1 could not derive an EC50 value.

[2] = biological target: GluA2flip(R)-CNIH3 (A2R-C3 TetON HEK293 cells) (Homo sapiens, UniProt P42262, Q607R); test: VSD assay (counter-screen, CRC) on A2R-C3 cells; details: for CMPDmaxmin: max-min 8-100 s; for BaselineReturn: max 250-255 s minus min 0-5 s; for Glumaxmin: max-min normalized value 301-380 s
Source text: Cell lines used in the VSD assays were TetON HEK293 cells. This was the parental cell line for all stable cell lines created. We used GluA2flip(R) TetON HEK cell clone #4 that doxycycline (DOX) dependently expresses GluA2flip(R) (A2R). The A2R cells were used as the base cell line to derive cell lines that co-express auxiliary subunits.
(§6) Greiner 384-pp round-bottom plates containing glutamate for the second add were dispensed by hand using a multi-channel pipet at 5X final concentration. A2R-stg cells were plated in 384-well BD PureCoat amine-coated plates (Corning Life Sciences) at 16k cells/well in DMEM medium supplemented with 10% heat-inactivated FBS and 100U/mL PenStrep antibiotic. […] Cells were incubated overnight (O/N) and washed 4 times in HBSS containing 20 mM HEPES, pH 7.4, on an ELX405CW liquid aspirator and dispenser (BioTek). Buffer was left in the wells and an equal amount of 2X FLIPR dye solution was added and incubated on the cells at room temperature for 45 min. Fluorescence signal was collected at 1 Hz using Ex. 480±20 nm/Em. 540±40 nm on a Hamamatsu Functional Drug Screening System 6000 (FDSS). Baseline signal was collected for 10 seconds followed by addition of 10 μl of 5X compound for a final concentration of 10 μM.
This assay was carried out in the same way as the VSD screening assay except a 10-point concentration curve, from 40 μM to 10 nM, was plated in triplicate for each compound on a single 384-well plate. Data were summarized by plotting them as %max GLUslope against log [compound] that was fit to a four-parameter logistical model. %max GLUslope is defined as a normalized GLUslope expressed as a percentage of the mean maximum GLUslope, defined as 100, where background mean vehicle control (VHLslope) were subtracted from both values on a per plate basis. Thus, %max GLU slope = (GLUslope-mean VHLslope/mean maxGLUslope-mean VHLslope).

[3] = biological target: GluA2flip(R)-stargazin (A2R-stg TetON HEK293 cells) (Homo sapiens, UniProt P42262, Q607R); test: Voltage-sensitive dye (VSD) assay (primary screen, counter-screen, CRC) on A2R-stg cells; details: for CMPDmaxmin: max-min 8-100 s, only compound present; for BaselineReturn: max 250-255 s minus min 0-5 s; for Glumaxmin: max-min normalized value 301-380 s; for Glumaxmin / GluSlope: compound and glutamate present; for GluSlope: slope 310-315 s
Procedure: Cell lines used in the VSD assays were TetON HEK293 cells. […] We used GluA2flip(R) TetON HEK cell clone #4 that doxycycline (DOX) dependently expresses GluA2flip(R) (A2R). The A2R cells were used as the base cell line to derive cell lines that co-express auxiliary subunits.
as §6
Hits were selected from this initial screen using 4 different criteria, which we termed CMPDslope, CMPDmaxmin, GLUslope, and GLUmaxmin. […] GLUslope is the fitted slope of the increase in fluorescence within 10 sec after adding glutamate. GLUmaxmin is the difference in the minimum and maximum value in fluorescence signal reached in the 100 sec window after adding glutamate. Compounds were classified as hits if they differed by 3 standard deviations of the mean for each criterion. Tier 1 hits were classified as those that hit in the GLUslope, GLUmaxmin, and CMPDmaxmin windows. Tier 2 hits were classified as compounds that hit in the GLUslope window and either the GLUmaxmin or CMPDmaxmin window. Tier 3 hits were classified as those that hit in only the GLUslope or the GLUmaxmin window. Tier 4 hits were classified as compounds that hit only in the CMPD window, CMPDslope or CMPDmaxmin. Hit selection was further narrowed using the criterion that their signal must return to near baseline values before entering the glutamate add window.
VSD concentration response curves (CRCs): After the above counter-screens, compounds that remained positive were moved forward to collect complete CRCs for A2R-stg and A2R-C3 cell lines. This assay was carried out in the same way as the VSD screening assay except a 10-point concentration curve, from 40 μM to 10 nM, was plated in triplicate for each compound on a single 384-well plate. Data were summarized by plotting them as %max GLUslope against log [compound] that was fit to a four-parameter logistical model. %max GLUslope is defined as a normalized GLUslope expressed as a percentage of the mean maximum GLUslope, defined as 100, where background mean vehicle control (VHLslope) were subtracted from both values on a per plate basis. Thus, %max GLU slope = (GLUslope-mean VHLslope/mean maxGLUslope-mean VHLslope).

[4] = test system: GluA2 alone; details: published value; cited from earlier work
[5] = biological target: T1, GluA2flip(Q) (A2Q cells) (Homo sapiens, UniProt P42262); test: Calcium flux (Fluo-8) compound CRC assay on A2Q cells; type: cell-based; details: CRC from GLUslope1; 1 mM glutamate; PAM; read-out: EC50 Ca2+ Sensing, A2Q
T1 construct: FLAG (C); expressed in transfected cells

[6] = test system: GluA1-stargazin; set-up: method as in PMID 16785437; details: published value; cited from earlier work
[7] = biological target: GluA2flip(Q)-CNIH3 (A2Q-C3 cells) (Homo sapiens, UniProt P42262); test: Calcium flux (Fluo-8) compound CRC assay on A2Q-C3 cells
Sequence of GluA2flip(Q)-CNIH3 (A2Q-C3 cells) (P42262 25-883 isoform P42262-2 limits assumed): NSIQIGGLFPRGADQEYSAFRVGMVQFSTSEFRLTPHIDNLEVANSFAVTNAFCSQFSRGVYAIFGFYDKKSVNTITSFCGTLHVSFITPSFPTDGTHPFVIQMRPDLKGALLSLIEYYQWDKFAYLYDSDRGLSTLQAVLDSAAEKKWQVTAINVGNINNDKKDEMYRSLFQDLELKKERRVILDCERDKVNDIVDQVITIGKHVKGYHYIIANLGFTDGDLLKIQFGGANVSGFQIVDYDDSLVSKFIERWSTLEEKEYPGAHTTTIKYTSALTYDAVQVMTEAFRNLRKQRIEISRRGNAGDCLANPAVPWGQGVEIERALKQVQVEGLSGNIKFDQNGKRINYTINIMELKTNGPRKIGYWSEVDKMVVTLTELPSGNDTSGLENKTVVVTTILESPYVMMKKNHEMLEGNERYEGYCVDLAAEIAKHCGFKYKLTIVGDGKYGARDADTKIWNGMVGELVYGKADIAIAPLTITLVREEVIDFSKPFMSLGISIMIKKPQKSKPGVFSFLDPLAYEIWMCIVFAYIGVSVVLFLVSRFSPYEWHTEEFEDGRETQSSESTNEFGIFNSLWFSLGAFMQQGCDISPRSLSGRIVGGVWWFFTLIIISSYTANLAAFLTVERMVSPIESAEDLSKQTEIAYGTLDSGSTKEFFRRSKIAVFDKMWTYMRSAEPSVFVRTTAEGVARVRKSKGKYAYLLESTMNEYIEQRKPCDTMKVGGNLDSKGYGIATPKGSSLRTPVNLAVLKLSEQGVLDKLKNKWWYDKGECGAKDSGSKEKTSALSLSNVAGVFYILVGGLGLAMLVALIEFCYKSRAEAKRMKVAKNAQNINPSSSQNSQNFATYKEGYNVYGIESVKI
Sequence of GluA2flip(Q)-CNIH3 (A2Q-C3 cells) (Q8TBE1 whole entry partner): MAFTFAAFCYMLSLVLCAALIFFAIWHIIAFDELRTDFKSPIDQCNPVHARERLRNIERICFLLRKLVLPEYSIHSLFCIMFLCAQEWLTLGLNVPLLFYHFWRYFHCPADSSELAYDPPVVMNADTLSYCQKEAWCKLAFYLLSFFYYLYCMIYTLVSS
Source text: as §1, §2, §3, §4, §5

Sequence of GluA2flip(R)-stargazin (A2R-stg TetON HEK293 cells) (P42262 25-883 isoform P42262-2 Q607R limits assumed): as the sequence (P42262 25-883 isoform P42262-2 limits assumed) above, with Q583R counted along it
Sequence of GluA2flip(R)-stargazin (A2R-stg TetON HEK293 cells) (Q9Y698 whole entry partner): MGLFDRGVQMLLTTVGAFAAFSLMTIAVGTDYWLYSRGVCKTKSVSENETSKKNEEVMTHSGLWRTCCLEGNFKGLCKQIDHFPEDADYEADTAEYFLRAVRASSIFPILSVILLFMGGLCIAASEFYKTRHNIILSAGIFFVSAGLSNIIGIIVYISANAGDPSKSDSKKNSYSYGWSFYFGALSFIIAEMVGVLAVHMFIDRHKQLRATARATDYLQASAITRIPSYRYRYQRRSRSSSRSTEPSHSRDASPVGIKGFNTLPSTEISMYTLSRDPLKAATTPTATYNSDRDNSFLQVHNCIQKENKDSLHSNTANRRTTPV
Sequence of GluA2flip(R)-CNIH3 (A2R-C3 TetON HEK293 cells) (P42262 25-883 isoform P42262-2 Q607R limits assumed): as the sequence (P42262 25-883 isoform P42262-2 limits assumed) above, with Q583R counted along it
Sequence of GluA2flip(R)-CNIH3 (A2R-C3 TetON HEK293 cells) (Q8TBE1 whole entry partner): as the sequence (Q8TBE1 whole entry partner) above
T1 sequence (P42262 25-883 isoform P42262-2 limits assumed): as the sequence (P42262 25-883 isoform P42262-2 limits assumed) above
Sequence of GluA2flip(Q)-GSG1L (A2Q-GSG cells) (P42262 25-883 isoform P42262-2 limits assumed): as above
Sequence of GluA2flip(Q)-GSG1L (A2Q-GSG cells) (Q6UXU4 whole entry partner): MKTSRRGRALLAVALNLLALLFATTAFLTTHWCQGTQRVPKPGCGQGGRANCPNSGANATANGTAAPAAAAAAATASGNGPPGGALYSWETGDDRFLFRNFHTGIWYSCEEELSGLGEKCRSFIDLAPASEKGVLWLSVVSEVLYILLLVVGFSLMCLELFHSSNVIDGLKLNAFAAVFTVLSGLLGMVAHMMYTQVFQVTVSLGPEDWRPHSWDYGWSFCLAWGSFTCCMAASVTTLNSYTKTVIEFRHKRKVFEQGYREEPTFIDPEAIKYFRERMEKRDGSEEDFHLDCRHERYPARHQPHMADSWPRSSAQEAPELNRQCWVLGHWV

SMILES: NS(=O)(=O)c1cc2c(cc1Cl)NC(C1CC3C=CC1C3)NS2(=O)=O (stereo not shown) [CTZ, cyclothiazide]
- EC50 [1]: 1600 nM
- EC50 [2]: 800 nM
- CMPDmaxmin ([2]; 1.95313e-6 M ligand, compound only, per well): 0.02498 and 0.01841 and 0.01791 and 0.02774
- CMPDmaxmin ([2]; 3.90625e-6 M ligand, compound only, per well): 0.02327 and 0.02311 and 0.02554 and 0.02077
- GluSlope ([2]; 3.90625e-6 M ligand, slope of normalized value 310-315 s, compound+glutamate, per well): 3.655e-6 and 4.544e-6 and 4.211e-6 and 5.143e-6 and 7.279e-6 and 5.643e-6
- BaselineReturn ([2]; 7.8125e-6 M ligand, per well): 0.02655 and 0.02476
- CMPDmaxmin ([2]; 7.8125e-6 M ligand, compound only, per well): 0.03133 and 0.03273
- Glumaxmin ([2]; 7.8125e-6 M ligand, compound+glutamate, per well): 0.1051 and 0.1531
- GluSlope ([2]; 7.8125e-6 M ligand, slope of normalized value 310-315 s, compound+glutamate, per well): 1.084e-5 and 1.388e-5
- BaselineReturn ([2]; 7.8125e-6 M, per well): 0.01945 and 0.0284 and 0.03375 and 0.02763
- CMPDmaxmin ([2]; 7.8125e-6 M, only compound present, per well): 0.02499 and 0.03299 and 0.03909 and 0.04405
- Glumaxmin ([2]; 7.8125e-6 M, compound and glutamate present, per well): 0.1519 and 0.1861 and 0.161 and 0.1533
- GluSlope ([2]; 7.8125e-6 M, slope 310-315 s, compound and glutamate present, per well): 1.427e-5 and 1.51e-5 and 1.46e-5 and 1.177e-5
- BaselineReturn ([2]; 1.5625e-5 M, per well): 0.04439 and 0.04696 and 0.04628 and 0.04829 and 0.04336 and 0.0478
- CMPDmaxmin ([2]; 1.5625e-5 M, only compound present, per well): 0.04028 and 0.05159 and 0.051 and 0.04736 and 0.04942 and 0.04289
- Glumaxmin ([2]; 1.5625e-5 M, compound and glutamate present, per well): 0.222 and 0.2669 and 0.2275
- GluSlope ([2]; 1.5625e-5 M, slope 310-315 s, compound and glutamate present, per well): 1.982e-5 and 1.758e-5 and 1.735e-5 and 2.35e-5 and 2.196e-5 and 2.323e-5
- Glumaxmin ([2]; 3.125e-5 M, compound and glutamate present, per well): 0.3443 and 0.3512 and 0.3188 and 0.318 and 0.3671
- GluSlope ([2]; 3.125e-5 M, slope 310-315 s, compound and glutamate present, per well): 2.5659e-5 and 2.5089e-5 and 2.398e-5 and 2.252e-5 and 2.824e-5 and 2.481e-5
- BaselineReturn ([2]; 6.25e-5 M, per well): 0.06773 and 0.07885 and 0.0633 and 0.06912 and 0.08153 and 0.08744
- CMPDmaxmin ([2]; 6.25e-5 M, only compound present, per well): 0.07201 and 0.07489 and 0.07237 and 0.06864 and 0.0824 and 0.08958
- Glumaxmin ([2]; 6.25e-5 M, compound and glutamate present, per well): 0.3694 and 0.3861 and 0.381 and 0.3994 and 0.4282 and 0.4362
- GluSlope ([2]; 6.25e-5 M, slope 310-315 s, compound and glutamate present, per well): 2.565e-5 and 2.689e-5 and 2.837e-5 and 2.784e-5 and 3.091e-5 and 2.855e-5
- CMPDmaxmin ([2]; 0.00025 M, only compound present, per well): 0.06294 and 0.04965 and 0.05528 and 0.07959 and 0.04247 and 0.05305
- Glumaxmin ([2]; 0.0005 M, compound and glutamate present, per well): 0.4488 and 0.457 and 0.483 and 0.5352 and 0.5162 and 0.5252
- GluSlope ([2]; 0.0005 M, slope 310-315 s, compound and glutamate present, per well): 2.6241e-5 and 2.3366e-5 and 3.012e-5 and 2.914e-5 and 2.692e-5 and 2.648e-5
- activity at 250 µM ([2]; HEK293, read-out: AVE %MAXCMPDslope, 0.00025 M, average for the concentration): 20.3%
- activity at 500 µM ([2]; HEK293, read-out: AVE %MAXCMPDslope, 0.0005 M, average for the concentration): 20.7%
- activity at […] ([2]; HEK293, read-out: AVE %MAXCMPDslope, […], average for the concentration): 19.2%
- activity at 250 µM ([2]; HEK293, read-out: AVE %MAXslope, 0.00025 M, average for the concentration): 68.1%
- activity at […] ([2]; HEK293, read-out: AVE %MAXslope, […], average for the concentration): 63.8%
- activity at 500 µM ([2]; HEK293, read-out: pctMAX, 0.0005 M, Glumaxmin vs vhl and glutamate controls, per well): 57.7%
- activity at 500 µM ([2]; HEK293, read-out: pctMAXslope, 0.0005 M, GluSlope vs vhl and glutamate controls, per well): 67.5%
- activity at 250 µM ([2]; HEK293, read-out: pctMAXslopeCMPD, 0.00025 M, CMPDSlope vs vhl and glutamate controls, per well): 18.6%
- activity at 500 µM ([2]; HEK293, read-out: pctMAXslopeCMPD, 0.0005 M, CMPDSlope vs vhl and glutamate controls, per well): 18.6%
- activity at […] ([2]; HEK293, read-out: pctMAXslopeCMPD, […], CMPDSlope vs vhl and glutamate controls, per well): 19.3%
- EC50 [3]: 900 nM
- CMPDmaxmin ([3]; 1.95313e-6 M): 0.01995 and 0.02197 and 0.02343 and 0.0204 and 0.02099
- BaselineReturn ([3]; 3.90625e-6 M): 0.01694 and 0.02593 and 0.02261 and 0.02289 and 0.01533 and 0.01439
- CMPDmaxmin ([3]; 3.90625e-6 M): 0.02654 and 0.02518 and 0.0211 and 0.01857
- BaselineReturn ([3]; 7.8125e-6 M): 0.02783 and 0.02662 and 0.0353 and 0.03259 and 0.02886 and 0.02588
- CMPDmaxmin ([3]; 7.8125e-6 M): 0.0268 and 0.03115 and 0.03117 and 0.04146 and 0.02344 and 0.0309
- Glumaxmin ([3]; 7.8125e-6 M): 0.1527 and 0.1804 and 0.2045 and 0.2207
- GluSlope ([3]; 7.8125e-6 M): 1.356e-5 and 1.3e-5 and 1.265e-5 and 1.674e-5 and 1.689e-5 and 1.461e-5
- CMPDmaxmin ([3]; 1.5625e-5 M): 0.03354 and 0.03952 and 0.05587 and 0.04086 and 0.03876 and 0.03573
- Glumaxmin ([3]; 1.5625e-5 M): 0.2558 and 0.3432 and 0.3162 and 0.3337
- GluSlope ([3]; 1.5625e-5 M): 1.634e-5 and 1.622e-5 and 1.53e-5 and 2.233e-5 and 2.059e-5 and 2.204e-5
- BaselineReturn ([3]; 3.125e-5 M): 0.0693 and 0.04071 and 0.04552 and 0.04058 and 0.03606 and 0.0477
- CMPDmaxmin ([3]; 3.125e-5 M): 0.05834 and 0.04067 and 0.04238 and 0.04539 and 0.03379 and 0.04106
- Glumaxmin ([3]; 3.125e-5 M): 0.4026 and 0.4044 and 0.3672 and 0.4286 and 0.4072
- CMPDmaxmin ([3]; 6.25e-5 M): 0.04424 and 0.05275 and 0.04401 and 0.03573 and 0.03351 and 0.03343
- Glumaxmin ([3]; 6.25e-5 M): 0.4053 and 0.4064 and 0.4608 and 0.469 and 0.4686 and 0.4908
- GluSlope ([3]; 6.25e-5 M): 1.974e-5 and 2.267e-5 and 2.556e-5 and 2.473e-5 and 2.4778e-5 and 2.559e-5
- CMPDmaxmin ([3]; 0.00025 M): 0.0338 and 0.0291 and 0.02948 and 0.02774 and 0.02398 and 0.02262
- Glumaxmin ([3]; 0.00025 M): 0.4981 and 0.5117 and 0.5708 and 0.5208 and 0.5482 and 0.5112
- GluSlope ([3]; 0.00025 M): 2.302e-5 and 2.432e-5 and 2.511e-5 and 2.509e-5 and 2.863e-5 and 2.554e-5
- CMPDmaxmin ([3]; 0.0005 M): 0.04815 and 0.05143 and 0.02949 and 0.04218 and 0.05076 and 0.0521
- Glumaxmin ([3]; 0.0005 M): 0.4797 and 0.5039 and 0.3566 and 0.5216 and 0.4987 and 0.5435
- GluSlope ([3]; 0.0005 M): 2.0723e-5 and 2.479e-5 and 1.376e-5 and 2.232e-5 and 2.492e-5 and 2.656e-5
- activity at 250 µM ([3]; HEK293, read-out: AVE %MAXCMPDslope, 0.00025 M, average of wells): 28.2%
- activity at 500 µM ([3]; HEK293, read-out: AVE %MAXCMPDslope, 0.0005 M, average of wells): 27.5%
- activity at […] ([3]; HEK293, read-out: AVE %MAXCMPDslope, […], average of wells): 29%
- activity at 250 µM ([3]; HEK293, read-out: AVE %MAXslope, 0.00025 M, average of wells): 71.3%
- activity at 500 µM ([3]; HEK293, read-out: AVE %MAXslope, 0.0005 M, average of wells): 65.9%
- activity at […] ([3]; HEK293, read-out: AVE %MAXslope, […], average of wells): 68.4%
- activity at 250 µM ([3]; HEK293, read-out: pctMAX, 0.00025 M, Glumaxmin as percentage MAX (vhl and glutamate controls)): 55.4%
- activity at […] ([3]; HEK293, read-out: pctMAX, […], Glumaxmin as percentage MAX (vhl and glutamate controls)): 44.5%
- activity at 250 µM ([3]; HEK293, read-out: pctMAXslope, 0.00025 M, GluSlope as percentage MAX): 67.4%
- activity at […] ([3]; HEK293, read-out: pctMAXslope, […], GluSlope as percentage MAX): 64.2%
- activity at 250 µM ([3]; HEK293, read-out: pctMAXslopeCMPD, 0.00025 M, CMPDSlope as percentage MAX): 27.7%
- activity at 500 µM ([3]; HEK293, read-out: pctMAXslopeCMPD, 0.0005 M, CMPDSlope as percentage MAX): 26.2%
- activity at […] ([3]; HEK293, read-out: pctMAXslopeCMPD, […], CMPDSlope as percentage MAX): 28.9%
- EC50 [4]: 2200 nM
- EC50 [5]: 1900 nM
- EC50 [6]: 2000 nM
- EC50 [7]: 400 nM
